Common to all, as to format: cell-based, human
The subject of one test is cell line Z2. The test is described as follows: Differentiation of cell line Z2 with individual differentiation factors, Illumina microarray readout. The source says: (§1) To reduce variations in gene expression due to cell cycle artifacts, and to capture an early gene expression profile of the cells, upon being expanded to six well plates, on the day the cells reached confluence, the cells were placed in media with a reduction of serum to 0.5% in the case where the original serum concentration was >5%. In all other cases, serum and/or other growth factors was reduced to 10% of their original values. These quiescence conditions were imposed for five days and all cultures were re-fed two days prior to harvest to reduce feeding difference artifacts. So, by way of example, if the original media was DMEM medium with 10% FCS, then the quiescence synchronization media was DMEM with 0.5% FCS. Total RNA was extracted directly from cells growing in 6-well or 6 cm tissue culture plates using Qiagen Rneasy mini kits according to the manufacturer's instructions. RNA concentrations were measured using a Beckman DU530 or Nanodrop spectrophotometer and RNA quality determined by denaturing agarose gel electrophoresis or an Agilent 2100 bioanalyzer. Whole-genome expression analysis was carried out using Affymetrix Human Genome U133 Plus 2.0 GeneChip® system, Illumina Human-6 v1 and HumanRef-8 v1 Beadchips (Illumina 1), and Illumina Human-6 v2 Beadchips (Illumina 2), and RNA levels for certain genes were confirmed by quantitative PCR. For Illumina BeadArrays, total RNA was linearly amplified and biotin-labeled using Illumina TotalPrep kits (Ambion), and cRNA was quality controlled using an Agilent 2100 Bioanalyzer. cRNA was hybridized to Illumina BeadChips, processed, and read using a BeadStation array reader according to the manufacturer's instructions (Illumina). Relative Fluorescence Unit (RFU) values for all of the cell lines with common probe sets were quantile normalized.
The cell lines of the present invention 7SMOO7 (also designated ACTC298 and used at P18), C4.4 (also designated ACTC87 and used at P14), E44 (also designated ACTC170 and used at P18), E69 (also designated ACTC101 and used at P15), SK17 (also designated ACTC162 and used at P14), SK31 (also designated ACTC164 used at P15), SM35 (also designated ACTC260 used at P12), T36 (also designated ACTC198 used at P19), T43 (also designated ACTC120 used at P17), W11 (also designated ACTC197 used at P12), and Z2 (also designated ACTC255 used at P12), are cultured to five day quiescence as described herein or alternatively exposed to differentiation conditions of Differentiation Factor Protocol I in Table VIII. […] RNA was isolated as described herein and analyzed by Illumina microarrays. […]

The next test has as its system cell line SK17. The test is described as follows: Differentiation of cell line SK17 with individual differentiation factors, Illumina microarray readout. Particulars: SK17, after day 14, retinoic acid added (1.0 uM).
Description: as §1, with “So, by way of example, if the original media was DMEM medium with 10% FCS, then the quiescence synchronization media was DMEM with 0.5% FCS. Total RNA was extracted directly from cells growing in 6-well or 6 cm tissue culture plates using Qiagen Rneasy mini kits according to the manufacturer's instructions.” left out, “Relative Fluorescence Unit (RFU) values for all of the cell lines with common probe sets were quantile normalized.” left out

The subject of the next test is cell line B16. The test is described as follows: Differentiation of cell line B16 in gels containing crosslinked hyaluronic acid and gelatin. Particulars: B16, hyaluronic acid/gelatin hydrogel, in the presence of retinoic acid. The source says: The cell line of the present invention designated B16 (ACTC59) that expresses the unique pattern of markers MKX (accession number NM_173576.1), CDH10 (accession number NM_006727.2), MEG3 (accession number NR_002766.1), SCUBE3 (accession number NM_152753.2), and distal HOX genes HOXA11 (accession number NM_000522.3), and HOXD11 (accession number NM_021192.2) when synchronized at quiescence as described herein by culturing 5 days at confluence in DMEM medium with 0.5% serum at passage 16-19 was differentiated in micromass conditions and in a hydrogel containing crosslinked hyaluronic acid and gelatin with supplemented growth factors from Table III as described in Table VIII under the headings “In vitro conditions to induce chondrogenenesis—Micromass Culture” and “Differentiation in gels containing crosslinked hyaluronic acid and gelatin” in the presence of TGFβ3 and retinoic acid as also described in Table VIII under the subheadings “Differentiation in Hydrogels Containing Crosslinked Hyaluronic Acid and Gelatin to Induce Chondrogenesis” and “Retinoic acid and EGF-Containing HyStem-CSS” respectively. […]

The next test relates to W10 cell line. Description: Differentiation of cell line W10, two weeks of culture with retinoic acid. Particulars: 1.0 uM all trans retinoic acid. The source says: The HAND2 and SCARA5 positive cell line W10 (also known as ACTC196) whose most distal HOX gene expression was HOXA4, B7, which is described in U.S. patent application Ser. No. 12/504,630 filed on Jul. 16, 2009 and titled “Methods to Accelerate the Isolation of Novel Cell Strains from Pluripotent Stem Cells and Cells Obtained Thereby”, incorporated herein by reference in its entirety, and whose gene expression markers at 18-21 doublings of clonal expansion are disclosed in Table 1, was passaged to P14. […] cells for 14 days under conditions described as In vitro conditions to induce chondrogenenesis—Micromass Culture in Table VIII, that are expected to cause chondrogenic differentiation in cells capable of such differentiation. […] The presence of MYH11 was confirmed by immunocytochemistry.

Where [1] appears, read: Z2 (P12), 14 days, EGF 100 ng/ml, RFU >150 considered positive.

For “bFGF: growth factor used as individual differentiation factor”, the “BMP7 expression by microarray” value in the test with cell line Z2 (Z2, 14 days, 10 ng/mL bFGF) is recorded as 196 RFU.

Take “recombinant human EGF: recombinant human EGF used as differentiation factor”: in the test with cell line Z2 (setting [1]), the “BMP2 expression by microarray” value was 1015 RFU and the “BMP7 expression by microarray” value came to 1084 RFU.

Regarding `CC1=C(/C=C/C(C)=C/C=C/C(C)=C/C(=O)O)C(C)(C)CCC1` [retinoic acid, all-trans retinoic acid], in the test with cell line Z2 (Z2, 14 days, 1.0 uM retinoic acid), the “BMP7 expression by microarray” value is 271 RFU. Also, in the test with cell line SK17, the “MYH11 (smooth muscle marker) expression by microarray” value came out at 1715 RFUs and the “renin (REN) expression by microarray” value is listed as “markedly upregulated”. Moreover, the “NPPB (natriuretic peptide precursor B) expression” value in the test with cell line B16 was 11,851 RFUs. The MYH11 expression result in the test on W10 cell line is listed as “induction of MYH11”.

The values above are taken from US10920191B2, “Methods of screening embryonic progenitor cell lines” (LINEAGE CELL THERAPEUTICS, INC., priority 2008, dated 2021).
